Columns and labels:
Format in all cases: cell-based
[1] = test system: T47D (PI3Kα H1047R mutant) cells; assay: Inhibition of pAKT formation, alphaLISA SureFire Ultra AKT 1/2/3 (pS473), T47D cells; details: Homo sapiens, T47D, T47D (PI3Kα H1047R mutant) cells; inhibition of pAKT (pS473) formation; approximately one hour or 24 hours treatment; read-out: T47D pAKT (H1047R mutant) IC50
Method in brief: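 AKT Ser473 phosphorylation was quantified by alphaLISA SureFire Ultra after roughly 1 h or 24 h compound exposure at 37 °C. Cells were T47D (12,000/well in HBSS), treated with a 10-point 1:4 series starting at 10.4 μM. Percent of control used alpelisib background and DMSO reference, and IC50 came from four-parameter logistic fitting.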

[2] = test system: T47D (PI3Kα H1047R mutant) cells; assay: CellTiter-Glo 2.0 luminescent cell viability assay, 72 hours, T47D cells; details: Homo sapiens, T47D, 72 h, T47D (PI3Kα H1047R mutant) cells, CellTiter-Glo, approximately 72 hours; read-out: T47D (H1047R mutant) Viability IC50
Method in brief: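 Viability was measured by CellTiter-Glo 2.0 luminescence after approximately 72 h of compound exposure at 37° C. Plating was 1000 cells per well the day before dosing, with ten 1:4 dilutions from a 10 µM top concentration. Values as percent of vehicle were fitted by variable-slope log(inhibitor) regression to give IC50.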

[3] = test system: SKBR3 (PI3Kα wild type) cells; assay: CellTiter-Glo 2.0 luminescent cell viability assay, 72 hours, SKBR3 cells; details: Homo sapiens, SK-BR-3, 72 h, SKBR3 (PI3Kα wild type) cells, CellTiter-Glo, approximately 72 hours; read-out: SKBR3 (WT) Viability IC50
Method in brief: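 Viability measured via CTG luminescence following roughly 72 hours of compound exposure at 37° C. Dosing used a 10 um starting concentration diluted 1:4 over 10 points; percent-of-vehicle data fitted with a variable-slope four-parameter model for IC50.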

| Compound | IC50 [1] | IC50 [2] | IC50 [3] |
| --- | --- | --- | --- |
| Cc1cc([C@@H](C)Nc2ccccc2C(=O)O)c2nc(N3CCN(c4ccc(C#N)cc4C)CC3)c(C#N)c(=O)n2c1 [Example 10-101, (R)-2-((1-(3-cyano-2-(4-(4-cyano-2-methylphenyl)piperazin-1-yl)-7-methyl-4-oxo-4H-pyrido[1,2-a]pyrimidin-9-yl)ethyl)amino)benzoic acid] | 5.78 nM | 86.8 nM | > 10000 nM |
| Cc1cc([C@@H](C)Nc2ccccc2C(=O)O)c2nc(N3CC4CC(C3)C4(F)F)c(C)c(=O)n2c1 [Example 10-102, 2-(((1R)-1-(2-(6,6-difluoro-3-azabicyclo[3.1.1]heptan-3-yl)-3,7-dimethyl-4-oxo-4H-pyrido[1,2-a]pyrimidin-9-yl)ethyl)amino)benzoic acid] | 3.71 nM | 87 nM | > 10000 nM |
| Cc1cc([C@@H](C)Nc2ccccc2C(=O)O)c2nc(C3CCN(c4ccc(C#N)cc4)CC3)c(C#N)c(=O)n2c1 [Example 10-103, (R)-2-((1-(3-cyano-2-(1-(4-cyanophenyl)piperidin-4-yl)-7-methyl-4-oxo-4H-pyrido[1,2-a]pyrimidin-9-yl)ethyl)amino)benzoic acid] | 2.05 nM | 87.2 nM | 8760 nM |
| Cc1cc([C@@H](C)Nc2ccccc2C(=O)O)c2nc(N3CCC4(CC4)C(F)(F)C3)c(C)c(=O)n2c1 [Example 10-107, (R)-2-((1-(2-(4,4-difluoro-6-azaspiro[2.5]octan-6-yl)-3,R7-dimethyl-4-oxo-4H-pyrido[1,2-a]pyrimidin-9-yl)ethyl)amino)benzoic acid] | 6.72 nM | 92.5 nM | > 10000 nM |
| Cc1cc([C@@H](C)Nc2ccccc2C(=O)O)c2nc(N3CCC4(CC4)C(F)(F)C3)c(C#N)c(=O)n2c1 [Example 10-108, (R)-2-((1-(3-cyano-2-(4,4-difluoro-6-azaspiro[2.5]octan-6-yl)-7-methyl-4-oxo-4H-pyrido[1,2-a]pyrimidin-9-yl)ethyl)amino)benzoic acid] | 2.89 nM | 93.6 nM | > 10000 nM |
| Cc1cc([C@@H](C)Nc2ccccc2C(=O)O)c2nc(N3CCN(c4ccc(C#N)cc4)CC3C)c(C#N)c(=O)n2c1 (stereo partly drawn) [Example 10-109, 2-(((1R)-1-(3-cyano-2-(4-(4-cyanophenyl)-2-methylpiperazin-1-yl)-7-methyl-4-oxo-4H-pyrido[1,2-a]pyrimidin-9-yl)ethyl)amino)benzoic acid] | 2.67 nM | 93.7 nM | 8830 nM |
| Cc1cc([C@@H](C)Nc2ccccc2C(=O)O)c2nc(N3CCN(c4ccc(C#N)cc4)C(C)C3)c(C)c(=O)n2c1 (stereo partly drawn) [Example 10-110, 2-(((1R)-1-(2-(4-(4-cyanophenyl)-3-methylpiperazin-1-yl)-3,7-dimethyl-4-oxo-4H-pyrido[1,2-a]pyrimidin-9-yl)ethyl)amino)benzoic acid] | 1.05 nM | 94.1 nM | > 10000 nM |
| Cc1cc([C@@H](C)Nc2ccccc2C(=O)O)c2nc(N3CCC4(CC3)COC4)c(C)c(=O)n2c1 [Example 10-111, (R)-2-((1-(3,7-dimethyl-4-oxo-2-(2-oxa-7-azaspiro[3.5]nonan-7-yl)-4H-pyrido[1,2-a]pyrimidin-9-yl)ethyl)amino)benzoic acid] | 4.82 nM | 96.4 nM | > 10000 nM |
| Cc1cc([C@@H](C)Nc2ccccc2C(=O)O)c2nc(N3CCN(c4ncc(C#N)cn4)CC3)c(C#N)c(=O)n2c1 [Example 10-112, (R)-2-((1-(3-cyano-2-(4-(5-cyanopyrimidin-2-yl)piperazin-1-yl)-7-methyl-4-oxo-4H-pyrido[1,2-a]pyrimidin-9-yl)ethyl)amino)benzoic acid] | 6.23 nM | 96.7 nM | > 10000 nM |
| Cc1cc([C@@H](C)Nc2ccccc2C(=O)O)c2nc(N3CCC(F)(F)CC3)c(Cl)c(=O)n2c1 [Example 10-114, (R)-2-((1-(3-chloro-2-(4,4-difluoropiperidin-1-yl)-7-methyl-4-oxo-4H-pyrido[1,2-a]pyrimidin-9-yl)ethyl)amino)benzoic acid] | 2.58 nM | 98.5 nM | > 10000 nM |
| Cc1cc([C@@H](C)Nc2ccc(C)nc2C(=O)O)c2nc(NC3CCC3)c(C#N)c(=O)n2c1 [Example 10-115, (R)-3-((1-(3-cyano-2-(cyclobutylamino)-7-methyl-4-oxo-4H-pyrido[1,2-a]pyrimidin-9-yl)ethyl)amino)-6-methylpicolinic acid] | 58.4 nM | 98.8 nM | > 10000 nM |
| COC1CCN(c2nc3c([C@@H](C)Nc4ccccc4C(=O)O)cc(C)cn3c(=O)c2C)CC1(F)F (stereo partly drawn) [Example 10-116, 2-(((1R)-1-(2-(3,3-difluoro-4-methoxypiperidin-1-yl)-3,7-dimethyl-4-oxo-4H-pyrido[1,2-a]pyrimidin-9-yl)ethyl)amino)benzoic acid] | 1.58 nM | 100 nM | > 10000 nM |
| Cc1cc([C@@H](C)Nc2ccccc2C(=O)O)c2nc(N3CCN(C(=O)c4ccccc4)CC3)c(C)c(=O)n2c1 [Example 10-117, (R)-2-((1-(2-(4-benzoylpiperazin-1-yl)-3,7-dimethyl-4-oxo-4H-pyrido[1,2-a]pyrimidin-9-yl)ethyl)amino)benzoic acid] | 2.16 nM | 101 nM | 3720 nM |
| Cc1cc([C@@H](C)Nc2ccccc2C(=O)O)c2nc(C3CCN(c4ccc(C#N)cc4)CC3)c(C)c(=O)n2c1 [Example 10-120, (R)-2-((1-(2-(1-(4-cyanophenyl)piperidin-4-yl)-3,7-dimethyl-4-oxo-4H-pyrido[1,2-a]pyrimidin-9-yl)ethyl)amino)benzoic acid] | 2.25 nM | 103 nM | > 10000 nM |
| COC1CCN(c2nc3c([C@@H](C)Nc4ccccc4C(=O)O)cc(C)cn3c(=O)c2C#N)CC1 [Example 10-123, (R)-2-((1-(3-cyano-2-(4-methoxypiperidin-1-yl)-7-methyl-4-oxo-4H-pyrido[1,2-a]pyrimidin-9-yl)ethyl)amino)benzoic acid] | 2.39 nM | 104 nM | > 10000 nM |
| Cc1cc([C@@H](C)Nc2ccccc2C(=O)O)c2nc(N3CC4CC(C4)C3)c(C)c(=O)n2c1 [Example 10-124, (R)-2-((1-(2-(3-azabicyclo[3.1.1]heptan-3-yl)-3,7-dimethyl-4-oxo-4H-pyrido[1,2-a]pyrimidin-9-yl)ethyl)amino)benzoic acid] | 1.59 nM | 105 nM | > 10000 nM |
| Cc1cc([C@@H](C)Nc2ccccc2C(=O)O)c2nc(N3CCN(CC(F)(F)F)CC3)c(C)c(=O)n2c1 [Example 10-125, (R)-2-((1-(3,7-dimethyl-4-oxo-2-(4-(2,2,2-trifluoroethyl)piperazin-1-yl)-4H-pyrido[1,2-a]pyrimidin-9-yl)ethyl)amino)benzoic acid] | 3.13 nM | 107 nM | > 10000 nM |
| Cc1cc([C@@H](C)Nc2ccccc2C(=O)O)c2nc(N3CCC(F)(F)[C@H](C)C3)c(C)c(=O)n2c1 [Example 10-126, 2-(((R)-1-(2-((R)-4,4-difluoro-3-methylpiperidin-1-yl)-3,7-dimethyl-4-oxo-4H-pyrido[1,2-a]pyrimidin-9-yl)ethyl)amino)benzoic acid] | 2.64 nM | 109 nM | > 10000 nM |
